Ki data for eleven compounds are collected here from US8354432B2, “Cyclic derivatives as modulators of chemokine receptor activity” (Bristol-Myers Squibb Company, priority 2006, dated 2013).

The target of the first experiment is T1, CCR1 (Homo sapiens, UniProt P32246).
T1 construct: the THP-1 cell line, which expresses the endogenous CCR1 receptor; endogenous in cells; host or cells: THP-1 cells (human monocytic line); the text also allows human PBMC or human monocytes
T1 sequence (P32246 1-355): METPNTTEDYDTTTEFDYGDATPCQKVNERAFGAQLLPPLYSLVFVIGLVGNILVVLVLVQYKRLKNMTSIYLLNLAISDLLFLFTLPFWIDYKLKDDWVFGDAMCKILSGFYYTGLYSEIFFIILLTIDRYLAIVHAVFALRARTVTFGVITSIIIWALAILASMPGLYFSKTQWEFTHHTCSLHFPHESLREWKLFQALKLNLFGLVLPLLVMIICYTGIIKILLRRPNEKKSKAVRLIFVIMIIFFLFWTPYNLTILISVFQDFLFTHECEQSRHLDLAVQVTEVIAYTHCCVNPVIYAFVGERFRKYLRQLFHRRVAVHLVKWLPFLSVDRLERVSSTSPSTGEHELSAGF
Kind of experiment: Antagonism of MIP-1α binding to human THP-1 cells (CCR1 binding).
Settings: not given
On the procedure:
Antagonism of MIP-1α Binding to Human THP-1 Cells
Compounds of the present invention have activity in the antagonism of MIP-1α binding to human THP-1 cells described here.
Millipore filter plates (#MABVN1250) are treated with 100 μl of binding buffer (0.5% bovine serum albumin, 20 mM HEPES buffer and 5 mM magnesium chloride in RPMI 1640 media) for thirty minutes at room temperature. To measure binding, 50 μl of binding buffer, with or without a known concentration of compound, is combined with 50 μl of ^125-I labeled human MIP-1α (to give a final concentration of 50 pM radioligand) and 50 μl of binding buffer containing 5×10^5 cells. Cells used for such binding assays can include the THP-1 cell line, which expresses the endogenous CCR1 receptor, or human peripheral blood mononuclear cells, isolated by Ficoll-Hypaque gradient centrifugation, or human monocytes (Weiner et al., J. Immunol. Methods, 1980, 36, 89). The mixture of compound, cells and radioligand is incubated at room temperature for thirty minutes. Plates are placed onto a vacuum manifold, vacuum applied, and the plates washed three times with binding buffer containing 0.5M NaCl. The plastic skirt is removed from the plate, the plate allowed to air dry, the wells punched out and counted. The percent inhibition of binding is calculated using the total counts obtained in the absence of any competing compound and the background binding determined by addition of 100 nM MIP-1α in place of the test compound.
As a reminder, the Ki is a measure of affinity in units of concentration, obtained from inhibition or displacement. Compound `COc1cc(N2CCC(C(Cn3nc(C(F)(F)F)c(Cl)c3C)NC(=O)CF)CC2)c(Cl)cc1Cl` (racemic) [Example 4p, N-(2-(4-Chloro-5-methyl-3-(trifluoromethyl)-1H-pyrazol-1-yl)-1-(1-(2,4-dichloro-5-methoxyphenyl)piperidin-4-yl)ethyl)-2-fluoroacetamide] showed an inhibition constant (Ki) of 4.3 nM.

The same experiment, now with this note: 125-I labeled human MIP-1α (50 pM), THP-1 cells expressing endogenous CCR1, room temperature, thirty minutes; read-out: CCR1 Binding Ki (n = 1 unless otherwise noted).
Take `COc1cc(N2CCC(C(Cn3nc(C(F)(F)F)c(Cl)c3C)NC(=O)[C@@H](C)O)CC2)c(Cl)cc1Cl` (mixture of isomers) [Example 4n, (2R)-N-(2-(4-Chloro-5-methyl-3-(trifluoromethyl)-1H-pyrazol-1-yl)-1-(1-(2,4-dichloro-5-methoxyphenyl)piperidin-4-yl)ethyl)-2-hydroxypropanamide]: the Ki worked out at 3.46 ± 0.48 nM.

Regarding `COc1cc(N2CCC(C(O)Cn3nc(N)c4cccnc43)CC2)ccc1Cl` (racemic) [Example 2c, 2-(3-Amino-1H-pyrazolo[3,4-b]pyridin-1-yl)-1-(1-(4-chloro-3-methoxyphenyl)piperidin-4-yl)ethanol], the inhibitory constant (Ki) was around 2220 nM.

With `COc1cc(N2CCC(C(O)Cn3nc(C(F)(F)F)nc3C)CC2)ccc1Cl` (racemic) [Example 2h, 1-(1-(4-Chloro-3-methoxyphenyl)piperidin-4-yl)-2-(5-methyl-3-(trifluoromethyl)-1H-1,2,4-triazol-1-yl)ethanol], the Ki worked out at 156 nM.

Turning to `COc1cc(N2CCC(C(N)Cn3nc(C(F)(F)F)c(Cl)c3C)CC2)c(Cl)cc1Cl` (racemic) [Example 4a, 2-(4-Chloro-5-methyl-3-(trifluoromethyl)-1H-pyrazol-1-yl)-1-(1-(2,4-dichloro-5-methoxyphenyl)piperidin-4-yl)ethanamine], the Ki was found to be 125 nM.

Consider `COc1cc(N2CCC(C(Cn3nc(C(F)(F)F)c(Cl)c3C)NC(C)=O)CC2)c(Cl)cc1Cl` (racemic) [Example 4c, N-(2-(4-Chloro-5-methyl-3-(trifluoromethyl)-1H-pyrazol-1-yl)-1-(1-(2,4-dichloro-5-methoxyphenyl)piperidin-4-yl)ethyl)acetamide], for which the inhibition constant Ki turned out to be 6.8 nM.

Take `COc1cc(N2CCC(C)(C(O)Cn3nc(C(F)(F)F)c(Cl)c3C)CC2)ccc1Cl` (racemic) [Example 11, 1-(1-(4-Chloro-3-methoxyphenyl)-4-methylpiperidin-4-yl)-2-(4-chloro-5-methyl-3-(trifluoromethyl)-1H-pyrazol-1-yl)ethanol]: the Ki is around 1250 nM.

For `COc1cccc(N2CCC(C(O)Cn3nc(C(F)(F)F)c(Cl)c3C)CC2)c1` (racemic) [Example 15b, 2-(4-Chloro-5-methyl-3-(trifluoromethyl)-1H-pyrazol-1-yl)-1-(1-(3-methoxyphenyl)piperidin-4-yl)ethanol], the Ki was determined as 1020 nM.

As to `COc1cc(N2CCC(C(Cn3nc(C(F)(F)F)cc3C)NC(=O)CN)CC2)ccc1Cl` (single isomer, unassigned) [Example 5c, 2-amino-N-(1-(1-(4-chloro-3-methoxyphenyl)piperidin-4-yl)-2-(5-methyl-3-(trifluoromethyl)-1H-pyrazol-1-yl)ethyl)acetamide], the Ki was 145 nM.

Take `COc1cc(N2CCC(C(Cn3nc(C(F)(F)F)c(Cl)c3C)NC(=O)CO)CC2)c(Cl)cc1Cl` (centres unmarked) [Example 4i, N-(2-(4-Chloro-5-methyl-3-(trifluoromethyl)-1H-pyrazol-1-yl)-1-(1-(2,4-dichloro-5-methoxyphenyl)piperidin-4-yl)ethyl)-2-hydroxyacetamide]: the Ki was 5.15 ± 1.68 nM.

“N-(1-(1-(4-chloro-3-methoxyphenyl)piperidin-4-yl)-2-(5-methyl-3-(trifluoromethyl)-1H-pyrazol-1-yl)ethyl)-2-hydroxyacetamide [Example 5b]”: the Ki was around 2200 nM.
